Tested on: KRAS G12C-mutant advanced solid tumors
Assay: NCT04956640 Phase 1a monotherapy clinical response (BOR, ORR, DCR, DOR, TTR, % change from baseline, treatment duration)
Assay type: in vivo, human
Settings: for Best overall response (BOR): Complete Response (CR), % / Best overall response (BOR): No Evaluable (NE), % / Best overall response (BOR): Partial Response (PR), % / Best overall response (BOR): Partial Response, pending confirmation and ongoing (uPR), % / Best overall response (BOR): Progressive Disease (PD), % / Best overall response (BOR): Stable Disease (SD), % / Disease control rate (CR + PR + uPR + SD), % / Objective response rate (CR + PR), % / Objective response rate, confirmed and unconfirmed (CR + PR + uPR), %: Phase 1a NSCLC patients; for Duration of response (DOR) 6 to <9 months / Duration of response (DOR) <6 months / Time to response (TTR) 2 to <4 months / Time to response (TTR) 4 to <6 months / Time to response (TTR) 6 to <9 months / Time to response (TTR) <2 months: Phase 1a responders
Description: The term “BOR” as used herein refers to best overall response based on investigator assessments using RECIST criteria (version 1.1). The minimum duration for BOR of SD is at least 6 weeks after the date of first dose of study drug.
The term “DOR” as used herein refers to duration of response, wherein DOR in months is calculated as the event or censoring date minus the response start date plus 1 day divided by 30.4375.
The term “ORR” as used herein refers to objective response rate, wherein objective response rate is the proportion of patients with BOR of CR or PR. Objective response rate, unconfirmed, is the proportion of patients with BOR of CR, PR, or uPR.
The term “TTR” as used herein refers to time to response, wherein TTR in months is calculated as response start date minus first dose date plus 1 day divided by 30.4375.
NCT04956640 includes Phase 1a dose escalation (Part A of NCT04956640, see Table 3) followed by a Phase 1b dose expansion (Parts B to E of NCT04956640, see Table 4). […] Phase 1b dose expansion will include 12 cohorts (See Table 4) to further evaluate safety and clinical activity.

[1] = Without Prior KRAS G12Ci (N = 8)
[2] = starting dose 50 mg BID (N = 14)
[3] = starting dose 100 mg BID (N = 24)
[4] = starting dose 150 mg BID (N = 25)
[5] = starting dose 200 mg BID (N = 12)

## C=CC(=O)N1CCN2C(=O)c3cc(F)c(-c4ccc(F)c5sc(N)c(C#N)c45)c(Cl)c3OCC[C@H]2C1 (single isomer, unassigned) [Formula I]
CRC
  Best observed response PD (unconfirmed and confirmed), patients: 1
  Best observed response PR (unconfirmed and confirmed), patients: 1
  Best observed response SD, patients: 13
NSCLC naïve to KRAS G12Ci
  Best observed response PD (unconfirmed and confirmed), patients: 1
  Best observed response SD, patients: 1
NSCLC with prior KRAS G12Ci
  Best observed response PD (unconfirmed and confirmed), patients: 3
  Best observed response PR (unconfirmed and confirmed), patients: 1
  Best observed response SD, patients: 3
PANC
  Best observed response PD (unconfirmed and confirmed), patients: 2
  Best observed response PR (unconfirmed and confirmed), patients: 2
  Best observed response SD, patients: 2
Total (N = 22)
  Best overall response (BOR): Complete Response (CR), %: (0.0) %
  Best overall response (BOR): No Evaluable (NE), %: (4.5) %
  Best overall response (BOR): Partial Response (PR), %: (18.2) %
  Best overall response (BOR): Partial Response, pending confirmation and ongoing (uPR), %: (0.0) %
  Best overall response (BOR): Progressive Disease (PD), %: (22.7) %
  Best overall response (BOR): Stable Disease (SD), %: (54.5) %
  Disease control rate (CR + PR + uPR + SD), %: (72.7) %
  Objective response rate (CR + PR), %: (18.2) %
  Objective response rate, confirmed and unconfirmed (CR + PR + uPR), %: (18.2) %
With Prior KRAS G12Ci (N = 14)
  Best overall response (BOR): Complete Response (CR), %: (0.0) %
  Best overall response (BOR): No Evaluable (NE), %: (7.1) %
  Best overall response (BOR): Partial Response (PR), %: (7.1) %
  Best overall response (BOR): Partial Response, pending confirmation and ongoing (uPR), %: (0.0) %
  Best overall response (BOR): Progressive Disease (PD), %: (28.6) %
  Best overall response (BOR): Stable Disease (SD), %: (57.1) %
  Disease control rate (CR + PR + uPR + SD), %: (64.3) %
  Objective response rate (CR + PR), %: (7.1) %
  Objective response rate, confirmed and unconfirmed (CR + PR + uPR), %: (7.1) %
[1]
  Best overall response (BOR): Complete Response (CR), %: (0.0) %
  Best overall response (BOR): No Evaluable (NE), %: (0.0) %
  Best overall response (BOR): Partial Response (PR), %: (37.5) %
  Best overall response (BOR): Partial Response, pending confirmation and ongoing (uPR), %: (0.0) %
  Best overall response (BOR): Progressive Disease (PD), %: (12.5) %
  Best overall response (BOR): Stable Disease (SD), %: (50.0) %
  Disease control rate (CR + PR + uPR + SD), %: (87.5) %
  Objective response rate (CR + PR), %: (37.5) %
  Objective response rate, confirmed and unconfirmed (CR + PR + uPR), %: (37.5) %
Total (N = 75)
  Duration of response (DOR) 6 to <9 months: 3 (15.8) n (%)
  Duration of response (DOR) <6 months: 16 (84.2) n (%)
  Time to response (TTR) 2 to <4 months: 2 (10.5) n (%)
  Time to response (TTR) 4 to <6 months: 2 (10.5) n (%)
  Time to response (TTR) 6 to <9 months: 1 (5.3) n (%)
  Time to response (TTR) <2 months: 14 (73.7) n (%)
[2]
  Duration of response (DOR) 6 to <9 months: 0 (0.0) n (%)
  Duration of response (DOR) <6 months: 2 (100.0) n (%)
  Time to response (TTR) 2 to <4 months: 0 (0.0) n (%)
  Time to response (TTR) 4 to <6 months: 0 (0.0) n (%)
  Time to response (TTR) 6 to <9 months: 0 (0.0) n (%)
  Time to response (TTR) <2 months: 2 (100.0) n (%)
[3]
  Duration of response (DOR) 6 to <9 months: 0 (0.0) n (%)
  Duration of response (DOR) <6 months: 7 (100.0) n (%)
  Time to response (TTR) 2 to <4 months: 1 (14.3) n (%)
  Time to response (TTR) 4 to <6 months: 0 (0.0) n (%)
  Time to response (TTR) 6 to <9 months: 1 (14.3) n (%)
  Time to response (TTR) <2 months: 5 (71.4) n (%)
[4]
  Duration of response (DOR) 6 to <9 months: 2 (33.3) n (%)
  Duration of response (DOR) <6 months: 4 (66.7) n (%)
  Time to response (TTR) 2 to <4 months: 0 (0.0) n (%)
  Time to response (TTR) 4 to <6 months: 2 (33.3) n (%)
  Time to response (TTR) 6 to <9 months: 0 (0.0) n (%)
  Time to response (TTR) <2 months: 4 (66.7) n (%)
[5]
  Duration of response (DOR) 6 to <9 months: 1 (25.0) n (%)
  Duration of response (DOR) <6 months: 3 (75.0) n (%)
  Time to response (TTR) 2 to <4 months: 1 (25.0) n (%)
  Time to response (TTR) 4 to <6 months: 0 (0.0) n (%)
  Time to response (TTR) 6 to <9 months: 0 (0.0) n (%)
  Time to response (TTR) <2 months: 3 (75.0) n (%)
Phase 1a, Total (N = 75)
  Patients with best overall response of CR or PR: 19 (25.3) N′ (%)
